This note sets out measurements from ChEMBL document CHEMBL2034939, “Structure-based virtual screening of novel inhibitors of the uridyltransferase activity of Xanthomonas oryzae pv. oryzae GlmU” (Eur J Med Chem, 2012).

The nature of experiment [1]: Inhibition of Xanthomonas oryzae pv. oryzae KS-1-21 uridyltransferase domain of GlmU activity by ion-pair reverse-phase HPLC analysis.
The subject of experiment [2] is Xanthomonas oryzae pv. oryzae. In words: Antibacterial activity against Xanthomonas oryzae pv. oryzae KS-1-21 after 36 to 48 hrs by broth microdilution assay. Format: functional.
Experiment [3] is described as follows: Competitive inhibition of Xanthomonas oryzae pv. Oryzae KS-1-21 GlmU using 0.25 to 0.05 mM GlcNAc-1-p and 500 uM UTP by Lineweaver-Burk plot analysis.
A short description of experiment [4]: Uncompetitive inhibition of Xanthomonas oryzae pv. Oryzae KS-1-21 GlmU using varying concentration of UTP and 500 uM GlcNAc-1-p by Lineweaver-Burk plot analysis.
A short description of experiment [5]: Noncompetitive inhibition of Xanthomonas oryzae pv. Oryzae KS-1-21 GlmU using varying concentration of UTP and 500 uM GlcNAc-1-p by Lineweaver-Burk plot analysis.
A short description of experiment [6]: Noncompetitive inhibition of Xanthomonas oryzae pv. Oryzae KS-1-21 GlmU using 0.25 to 0.05 mM GlcNAc-1-p and 500 uM UTP by Lineweaver-Burk plot analysis.
Experiment [7] can be described thus: Uncompetitive inhibition of Xanthomonas oryzae pv. Oryzae KS-1-21 GlmU using 0.25 to 0.05 mM GlcNAc-1-p and 500 uM UTP by Lineweaver-Burk plot analysis.
Experiment [8] in a line: Competitive inhibition of Xanthomonas oryzae pv. Oryzae KS-1-21 GlmU using varying concentration of UTP and 500 uM GlcNAc-1-p by Lineweaver-Burk plot analysis.

pIC50, pKi: −log10 of the molar value. Values after ≈ are worked out from the molar mass of the structure shown.

What is called pIC50 is the IC50 on a negative log10 scale, so that one unit is a factor of ten. Low readings indicate a large IC50, high ones a small IC50. For orientation: MIC means the smallest concentration in the dilution series that meets the test's criterion for growth inhibition. High values mean a need for much substance, low ones inhibition by little substance. For `CCOc1ccc(C(=O)NCCCCCCCNC(=O)c2ccc(OCC)cc2)cc1`, in experiment [1], the pIC50 is 4.12. In experiment [2], the MIC was more than 500 µg/mL.
Compound `CCCCCOc1ccc(/C=N/NC(=O)c2nnn(-c3nonc3N)c2CN2CCCCCC2)cc1` showed a pIC50 in experiment [1] of 4.06. In addition, the MIC in experiment [2] was more than 500 µg/mL.
The like results for `Cc1ccc(OCC(=O)Nc2ccccc2C(=O)NC2CCCCC2)cc1` were, in that order, 4.07 and more than 500 µg/mL.
For `CCN(CC)c1ccc(/C=C(\NC(=O)c2ccccc2)C(=O)N/N=C/c2cc(O)ccc2Br)cc1`, in that order: 4.20 and more than 500 µg/mL.
Usually pKi stands for the Ki on a negative log10 scale, so that one unit is a factor of ten. Take `O=c1cc(-c2ccc(O)c(O)c2)oc2cc(O)cc(O)c12` [LUTEOLIN]: the pIC50 in experiment [1] is 6.09. The compound also displayed an MIC in experiment [2] of 186 µg/mL (≈ 651 µM). Moreover, the results for the pKi in experiment [3] and in experiment [4] were 6.36 and 6.00, respectively.
`Cc1cc(OCC(=O)NNC(=O)c2ccc(O)cc2O)cc(C)c1Cl`: the pKi in experiment [5] was 5.05; in experiment [6] it was 4.71. Further, the pIC50 in experiment [1] was 4.63. For the same compound, the MIC in experiment [2] amounted to 420 µg/mL (≈ 1150 µM).
In turn, `COc1ccc(C(=O)/C=C/c2cn(CC(O)CN3CCCCC3)c3ccccc23)cc1OC` (configuration not stated) had a pIC50 in experiment [1] of less than 4.00. In experiment [2], this compound showed an MIC of 82 µg/mL (≈ 183 µM).
For the compound `O=C(CCCCC(=O)NNC(=O)COc1ccc2ccccc2c1)NNC(=O)COc1ccc2ccccc2c1`, the pKi in experiment [7] was 5.08; in experiment [8], 5.09. For the same compound, the pIC50 in experiment [1] was 4.85. For the same compound, the MIC in experiment [2] turned out to be 302 µg/mL (≈ 557 µM).
